Results on one compound are retold here after US12577231B2, “Androgen receptor PROTACS” (GlaxoSmithKline Intellectual Property Development Limited, priority 2023, dated 2026).

The structures appear in SMILES notation.

In the test the target is T1, Androgen Receptor protein in human LnCaP cells (Homo sapiens, UniProt P10275, T878A).
T1 construct: the AR gene was modified, using CRISPR/Cas9 editing, so the expressed AR protein included an 11 amino acid HiBiT tag; endogenous in cells; host or cells: clonal LnCaP derived cell line, endogenous AR gene edited by CRISPR/Cas9
T1 sequence (P10275 1-920 T878A): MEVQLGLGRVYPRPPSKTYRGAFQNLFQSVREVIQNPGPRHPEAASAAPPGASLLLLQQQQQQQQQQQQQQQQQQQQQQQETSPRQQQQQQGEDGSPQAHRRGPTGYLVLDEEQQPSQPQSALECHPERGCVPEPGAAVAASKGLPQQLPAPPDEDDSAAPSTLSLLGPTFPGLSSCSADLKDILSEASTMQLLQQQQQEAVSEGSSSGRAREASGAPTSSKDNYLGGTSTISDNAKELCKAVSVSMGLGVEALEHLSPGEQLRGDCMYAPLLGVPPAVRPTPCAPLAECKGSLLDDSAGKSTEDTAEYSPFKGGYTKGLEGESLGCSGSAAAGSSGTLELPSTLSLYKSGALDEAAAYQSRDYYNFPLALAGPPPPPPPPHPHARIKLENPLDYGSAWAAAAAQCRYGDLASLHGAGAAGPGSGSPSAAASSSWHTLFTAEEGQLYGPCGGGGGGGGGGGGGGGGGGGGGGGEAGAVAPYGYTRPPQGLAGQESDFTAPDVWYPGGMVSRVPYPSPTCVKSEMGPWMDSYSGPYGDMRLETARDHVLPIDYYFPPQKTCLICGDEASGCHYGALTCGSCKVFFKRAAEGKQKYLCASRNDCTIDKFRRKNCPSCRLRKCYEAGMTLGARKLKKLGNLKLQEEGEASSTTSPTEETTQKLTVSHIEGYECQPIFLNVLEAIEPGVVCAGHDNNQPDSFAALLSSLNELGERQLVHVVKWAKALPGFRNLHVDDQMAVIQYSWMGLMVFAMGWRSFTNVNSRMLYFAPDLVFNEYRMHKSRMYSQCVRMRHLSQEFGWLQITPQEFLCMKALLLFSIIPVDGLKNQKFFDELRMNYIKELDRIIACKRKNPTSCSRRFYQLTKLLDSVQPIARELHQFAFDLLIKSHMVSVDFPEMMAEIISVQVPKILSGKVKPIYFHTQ
Put plainly: Androgen Receptor Degradation Assay (Nano-Glo HiBiT, LnCaP cells). It is filed as cell-based. Particulars: 18 h, HiBiT-tagged AR LnCaP cells, 18 h incubation, fitted curve asymptote maximum of degradation, read-out: mean asymptote max. Put shortly:
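LnCaP cells with CRISPR-knocked-in N-terminal HiBiT tag on endogenous AR, 10,000 cells/well, treated 18 h at 37 °C with PROTACs in an 11-point, 3-fold dilution series. AR quantified by lytic HiBiT luminescence, normalised to DMSO (0%) and cell-free (100%) controls. DC50 from 4-parameter fit (relative) or interpolation (absolute); Dmax is maximal observed degradation.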
For orientation: HiBiT is a short tag that completes a luciferase, so light tracks the accessible tagged protein.

Consider `CC1(C)[C@H](NC(=O)c2ccc(N3CCC(CN4CCC(n5ccc6c(N7CCC(=O)NC7=O)cc(F)cc65)CC4)CC3)c(F)c2)C(C)(C)[C@H]1Oc1ccc(C#N)c2ncccc12` [Example 32, N-((1r,3r)-3-((8-Cyanoquinolin-5-yl)oxy)-2,2,4,4-tetramethylcyclobutyl)-4-(4-((4-(4-(2,4-dioxotetrahydropyrimidin-1(2H)-yl)-6-fluoro-1H-indol-1-yl)piperidin-1-yl)methyl)piperidin-1-yl)-3-fluorobenzamide], for which the Dmax is no less than 50%.
